In PMC5612488 (Journal of the American Chemical Society, 2017):
pEC50, pKi: −log10 of the molar value. Values joined by “and” are separate entries in the source; they are usually repeats but may differ in a detail not shown here. Identical values can stand only once.

Tests used:
BoNT/A LC = BoNT/A LC (Clostridium botulinum, UniProt P0DPI0); format: biochemical
[1] = test system: BoNT/A-mediated cleavage of SNAP-25 in hiPSC-derived neurons; format: cell-based, human; conditions: for pEC50: read-out: EC50, protection of BoNT/A-intoxicated neurons (SNAP-25 cleavage)
[2] = mouse, in vivo, sc, 1 mg/kg
BoNT/A = conditions: mouse

Chain of BoNT/A LC (P0DPI0 2-448 limits assumed): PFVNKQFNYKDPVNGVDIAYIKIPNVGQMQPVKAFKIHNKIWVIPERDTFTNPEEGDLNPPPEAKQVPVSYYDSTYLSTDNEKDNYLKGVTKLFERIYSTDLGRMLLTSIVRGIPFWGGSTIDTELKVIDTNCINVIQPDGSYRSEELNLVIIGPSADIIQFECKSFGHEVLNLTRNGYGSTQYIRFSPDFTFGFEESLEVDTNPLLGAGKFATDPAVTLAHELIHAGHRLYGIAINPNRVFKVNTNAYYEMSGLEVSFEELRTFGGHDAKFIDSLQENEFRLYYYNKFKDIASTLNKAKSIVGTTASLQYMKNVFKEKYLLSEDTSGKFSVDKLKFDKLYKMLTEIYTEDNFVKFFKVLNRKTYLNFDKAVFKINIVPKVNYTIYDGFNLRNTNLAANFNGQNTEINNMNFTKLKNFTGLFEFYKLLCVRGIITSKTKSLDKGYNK

Row | Compound | result in cell-based BoNT/A assay [1] | survival of mice treated with complex only without toxin [2] | in vivo efficacy against BoNT/A (BoNT/A) | time to death (BoNT/A; in vivo) | effect on SNAP-25 cleavage [1] | pEC50 [1] | further results
1 | O=C1O[C@H]([C@@H](O)CO)C([O-])=C1O.[Na+] [ASC, Sodium ascorbate, reference compound] |  |  |  |  |  |  | effect on enzyme activity (BoNT/A LC): no effect
2 | c1ccc(-c2ccccn2)nc1 [BIPY, 2,2′-bipyridine] | promising results |  |  |  |  |  | 
3 | CNC(=S)NN=CC=NNC(=S)NC.[Cu+2] [Cu(GTSM), copper (II) glyoxal-bis(4-methylthiosemicarbazone)] |  | complete survival | efficacy against BoNT/A was established | significant increase | able to mitigate SNAP-25 cleavage | ~6.00 | efficacy after BoNT/A challenge (BoNT/A; in vivo): statistically significant efficacy was not achieved; time to death post-toxin exposure (BoNT/A; in vivo, sc): marked increase; delay between +complex and control curves of SNAP-25 cleavage versus time [1]: less than half hour delay; effect of additives NAC, ASC or BSO on complex inhibition of BoNT/A [1]: no observable effect
4 | COCCN(CCOC)C(=S)[S-].COCCN(CCOC)C(=S)[S-].[Cu+2] [Cu(MEDTC)2, copper (II) bis(2-methoxyethyl)dithiocarbamate] |  | complete survival | efficacy against BoNT/A was established | significant increase | able to mitigate SNAP-25 cleavage | ~6.00 | 
5 | Oc1c(Cl)cc(Cl)c2cccnc12 [DCOQ, 5,7-dichloroquinolin-8-ol] | promising results |  |  |  |  |  | 
6 | CuCl2 [Cu (II)] |  |  |  |  |  |  | pKi (BoNT/A LC): 5.81 and ~6.00; enzyme activity (BoNT/A LC): < 1%; inhibition mechanism (BoNT/A LC): noncompetitive inhibition; inhibitory activity in metal salt screen (BoNT/A LC): significant inhibitory activity; reversibility of inhibitory effect on Vmax (BoNT/A LC): reversible
